Test results taken from patent US9181222B2, “Protein kinase C inhibitors and uses thereof” (Rigel Pharmaceuticals, Inc., priority 2010, dated 2015).

Test system: Human primary T cells
Test: IL-2 ELISA, Human Primary T Cell, Anti-CD3+CD28+ (Whole Cell Assay)
Assay type: cell-based
Settings: IL-2 by ELISA, human primary T cells pre-incubated with compound 1 hr, stimulated with αCD3 and αCD28, 24 hours
Method: IL-2 ELISA, Human Primary T Cell, Anti-CD3+CD28+ (Whole Cell Assay)
Human primary T cell isolation and culture: Human primary T cells were prepared as follows. Whole blood was obtained from a healthy volunteer, mixed 1:1 with PBS, layered on to Ficoll Hypaque (Amersham Pharmacia Biotech, Piscataway, N.J., Catalog #17-1440-03) in 2:1 blood/PBS:ficoll ratio and centrifuged for 30 min at 4° C. at 1750 rpm. The cells at the serum: ficoll interface were recovered and washed twice with 5 volumes of PBS. These freshly isolated human peripheral blood mononuclear cells were cultured in Yssel's medium containing 40 U/mL IL2 in a flask pre-coated with 1 μg/mL αCD3 and 5 μg/mL αCD28 (Anti-Human CD3, BD Pharmingen Catalog #555336, Anti-Human CD28, Beckman Coulter Catalog #1M1376). The cells were stimulated for 3-4 days, then transferred to a fresh flask and maintained in RPMI (RPMI-1640 with L-Glutamine; Mediatech, Inc., Herndon Va., cat. #10-040-CM) with 10% FBS and 40 U/mL IL-2. The primary T-cells were then washed twice with PBS to remove the IL-2.
Primary T cell stimulation and IL2 ELISA: Human primary T cells (100,000 cells per well) were pre-incubated with or without test compound in Yssel's medium for 1 hr at 37° C. Cells were then stimulated by transferring them to round-bottom 96-well plates pre-coated with 1 μg/ml αCD3 and 5 μg/ml αCD28. For counter assay, cells were instead stimulated by adding 8× stock solutions of PMA and ionomycin in Yssels (for final concentrations of 0.5 ng/ml PMA and 0.1 μM ionomycin, both from Calbiochem). Cells were incubated at 37° C. for 24 hours before 100 μL supernatants were harvested for quantification of IL-2 by ELISA using Human IL-2 Duoset ELISA Kit from R and D Systems, Cat. # DY202E.

SMILES | IC50
CC1(C)CC(Nc2nc(Nc3cc(F)c(C4CC4)c(-n4cnnn4)c3)ncc2C#N)CC(C)(C)N1 [Compound I-4, 2-(4-Cyclopropyl-3-fluoro-5-tetrazol-1-yl-phenylamino)-4-(2,2,6,6-tetramethyl-piperidin-4-ylamino)-pyrimidine-5-carbonitrile] | < 250 nM
CC1(C)CC(Nc2nc(Nc3cc(C4CC4)c(F)c(-n4cnnn4)c3)ncc2C#N)CC(C)(C)N1 [Compound I-6, 2-(3-Cyclopropyl-4-fluoro-5-tetrazol-1-yl-phenylamino)-4-(2,2,6,6-tetramethyl-piperidin-4-ylamino)-pyrimidine-5-carbonitrile] | < 250 nM
CC(C)c1cc(F)c(Nc2ncc(C#N)c(NC3CC(C)(C)NC(C)(C)C3)n2)cc1-n1cnnn1 [Compound I-8, 2-(2-Fluoro-4-isopropyl-5-tetrazol-1-yl-phenylamino)-4-(2,2,6,6-tetramethyl-piperidin-4-ylamino)-pyrimidine-5-carbonitrile] | < 250 nM
CC(C)c1ccc(Nc2ncc(F)c(NC3CC(C)(C)NC(C)(C)C3)n2)cc1-n1cnnn1 [Compound I-9, 5-Fluoro-N2-(4-isopropyl-3-tetrazol-1-yl-phenyl)-N4-(2,2,6,6-tetramethyl-piperidin-4-yl)-pyrimidine-2,4-diamine] | < 250 nM
CC(C)c1ccc(Nc2ncc(C(N)=O)c(NC3CC(C)(C)NC(C)(C)C3)n2)cc1-n1cnnn1 [Compound I-10, 2-(4-Isopropyl-3-tetrazol-1-yl-phenylamino)-4-(2,2,6,6-tetramethyl-piperidin-4-ylamino)-pyrimidine-5-carboxylic acid amide] | 250 to 500 nM
CC(C)c1ccc(Nc2ncc(C#N)c(NC3CC(C)(C)NC(C)(C)C3)n2)cc1-n1cnnn1 [Compound I-11, 2-(4-Isopropyl-3-tetrazol-1-yl-phenylamino)-4-(2,2,6,6-tetramethyl-piperidin-4-ylamino)-pyrimidine-5-carbonitrile] | < 250 nM
CC1(C)CC(Nc2nc(Nc3cc(-n4cnnn4)ccc3F)ncc2F)CC(C)(C)N1 [Compound I-13, 5-Fluoro-N2-(2-fluoro-5-tetrazol-1-yl-phenyl)-N4-(2,2,6,6-tetramethyl-piperidin-4-yl)-pyrimidine-2,4-diamine] | < 250 nM
CN1C(C)(C)CC(Nc2nc(Nc3cc(-n4cnnn4)ccc3F)ncc2F)CC1(C)C [Compound I-14, 5-Fluoro-N2-(2-fluoro-5-tetrazol-1-yl-phenyl)-N4-(1,2,2,6,6-pentamethyl-piperidin-4-yl)-pyrimidine-2,4-diamine] | < 250 nM

Further lines, results first:

IC50 | SMILES
< 250 nM | CC1(C)CC(Nc2nc(Nc3cc(-n4cnnn4)c(C4CC4)cc3F)ncc2C#N)CC(C)(C)N1 [Compound I-2, 2-(4-Cyclopropyl-2-fluoro-5-tetrazol-1-yl-phenylamino)-4-(2,2,6,6-tetramethyl-piperidin-4-ylamino)-pyrimidine-5-carbonitrile]
500 to 1000 nM | CC1(C)CC(Nc2nc(Nc3cc(-n4cnnn4)c(C4CC4)cc3F)ncc2C(N)=O)CC(C)(C)N1 [Compound I-3, 2-(4-Cyclopropyl-2-fluoro-5-tetrazol-1-yl-phenylamino)-4-(2,2,6,6-tetramethyl-piperidin-4-ylamino)-pyrimidine-5-carboxylic acid amide]
< 250 nM | CC1(C)CC(Nc2nc(Nc3cc(F)c(C4CC4)c(-n4cnnn4)c3)ncc2F)CC(C)(C)N1 [Compound I-5, N2-(4-Cyclopropyl-3-fluoro-5-tetrazol-1-yl-phenyl)-5-fluoro-N4-(2,2,6,6-tetramethyl-piperidin-4-yl)-pyrimidine-2,4-diamine]
< 250 nM | CC1(C)CC(Nc2nc(Nc3cc(C4CC4)c(F)c(-n4cnnn4)c3)ncc2F)CC(C)(C)N1 [Compound I-7, N2-(3-Cyclopropyl-4-fluoro-5-tetrazol-1-yl-phenyl)-5-fluoro-N4-(2,2,6,6-tetramethyl-piperidin-4-yl)-pyrimidine-2,4-diamine]
< 250 nM | CC1(C)CC(Nc2nc(Nc3cc(-n4cnnn4)c(C4CC4)cc3F)ncc2F)CC(C)(C)N1 [Compound I-12, N2-(4-Cyclopropyl-2-fluoro-5-tetrazol-1-yl-phenyl)-5-fluoro-N4-(2,2,6,6-tetramethyl-piperidin-4-yl)-pyrimidine-2,4-diamine]
< 250 nM | CC1(C)CC(Nc2nc(Nc3ccc(C4CC4)c(-n4nnnc4C(F)(F)F)c3)ncc2F)CC(C)(C)N1 [Compound I-15, N2-[4-Cyclopropyl-3-(5-trifluoromethyl-tetrazol-1-yl)-phenyl]-5-fluoro-N4-(2,2,6,6-tetramethyl-piperidin-4-yl)-pyrimidine-2,4-diamine]
< 250 nM | CC(C)c1nnnn1-c1cc(Nc2ncc(F)c(NC3CC(C)(C)NC(C)(C)C3)n2)c(F)cc1C1CC1 [Compound I-16, N2-(4-cyclopropyl-2-fluoro-5-(5-isopropyl-1H-tetrazol-1-yl)phenyl)-5-fluoro-N4-(2,2,6,6-tetramethylpiperidin-4-yl)pyrimidine-2,4-diamine]
< 250 nM | CC1(C)CC(Nc2nc(Nc3cc(-n4nnnc4C4CC4)c(C4CC4)cc3F)ncc2F)CC(C)(C)N1 [Compound I-17, N2-(4-cyclopropyl-5-(5-cyclopropyl-1H-tetrazol-1-yl)-2-fluorophenyl)-5-fluoro-N4-(2,2,6,6-tetramethylpiperidin-4-yl)pyrimidine-2,4-diamine]
< 250 nM | Cc1nnnn1-c1cc(Nc2ncc(F)c(NC3CC(C)(C)NC(C)(C)C3)n2)c(F)cc1C1CC1 [Compound I-18, N2-(4-cyclopropyl-2-fluoro-5-(5-methyl-1H-tetrazol-1-yl)phenyl)-5-fluoro-N4-(2,2,6,6-tetramethylpiperidin-4-yl)pyrimidine-2,4-diamine]
< 250 nM | CC1(C)CC(Nc2nc(Nc3cc(-n4nnnc4C(F)(F)F)c(C4CC4)cc3F)ncc2F)CC(C)(C)N1 [Compound I-19, N2-(4-cyclopropyl-2-fluoro-5-(5-(trifluoromethyl)-1H-tetrazol-1-yl)phenyl)-5-fluoro-N4-(2,2,6,6-tetramethylpiperidin-4-yl)pyrimidine-2,4-diamine]
< 250 nM | CC1(C)CC(Nc2nc(Nc3cc(-n4nnnc4CF)c(C4CC4)cc3F)ncc2F)CC(C)(C)N1 [Compound I-20, N2-(4-cyclopropyl-2-fluoro-5-(5-(fluoromethyl)-1H-tetrazol-1-yl)phenyl)-5-fluoro-N4-(2,2,6,6-tetramethylpiperidin-4-yl)pyrimidine-2,4-diamine]
